Source: US10167262B2, “Herbicidal substituted 3-arylpyrazoles” (FMC CORPORATION, priority 2014, dated 2019)

Columns and labels:
Assay type in all cases: in vivo
wild oat (Avena fatua) = assay: Test C postemergence greenhouse test, plant response rating 0-100; settings: Avena fatua, post-emergence
Outline: (§1)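 Response is a visual 0–100 control rating taken 13 to 15 days post-treatment, with a dash marking no result. Plants ranged 2 to 18 cm when treated postemergence.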

[1] = system: chickweed (common chickweed, Stellaria media); assay: as above; settings: Stellaria media, post-emergence
Outline: as §1

kochia (Kochia scoparia) = assay: as above; settings: Bassia scoparia, post-emergence
Outline: as §1

[2] = system: galium (catchweed bedstraw, Galium aparine); assay: Test C pre-/postemergence greenhouse test, plant response rating 0-100; settings: Galium, post-emergence, Postemergence
Outline: (§2)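 Pre- and postemergence greenhouse test: seeds sown in loam/sand and treated preemergence, or plants at 2–18 cm (1- to 4-leaf stage) in peat-based medium sprayed postemergence, with compounds in non-phytotoxic solvent plus surfactant. Visual rating versus untreated controls after 13–15 days, 0 (no effect) to 100 (complete control).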

[3] = system: winter wheat (Triticum aestivum); assay: as above; settings: Triticum aestivum, post-emergence, Postemergence
Outline: as §2

soybean (Glycine max) = assay: as above; settings: Glycine max, post-emergence, Postemergence
Outline: as §2

[4] = system: johnsongrass (Sorghum halepense); assay: as above; settings: Sorghum halepense, post-emergence, Postemergence
Outline: as §2

[5] = system: Italian ryegrass (Lolium multiflorum); assay: as above; settings: Lolium multiflorum, post-emergence, Postemergence
Outline: as §2

[6] = system: giant foxtail (Setaria faberii); assay: as above; settings: Setaria faberi, post-emergence, Postemergence
Outline: as §2

[7] = system: lambsquarters (Chenopodium album); assay: as above; settings: Chenopodium album, post-emergence, Postemergence
Outline: as §2

corn (Zea mays) = assay: as above; settings: Zea mays, post-emergence, Postemergence
Outline: as §2

[8] = system: yellow nutsedge (Cyperus esculentus); assay: as above; settings: Cyperus, post-emergence, Postemergence
Outline: as §2

[9] = system: pigweed (Amaranthus retroflexus); assay: as above; settings: Amaranthus retroflexus, post-emergence, Postemergence
Outline: as §2

Compound: CCn1cc(C(=O)c2ccccc2)c(-c2cc(Cl)cc(Cl)c2)n1 [Compound 31, [3-(3,5-dichlorophenyl)-1-ethyl-1H-pyrazol-4-yl]phenylmethanone]
- pest or weed control at 16 g/ha (wild oat (Avena fatua); 16 g ai/ha): 0%
- pest or weed control at 62 g/ha (wild oat (Avena fatua); 62 g ai/ha): 0%
- pest or weed control at 125 g/ha (wild oat (Avena fatua); 125 g ai/ha): 0%
- pest or weed control at 16 g/ha ([1]; 16 g ai/ha): 10%
- pest or weed control at 31 g/ha ([1]; 31 g ai/ha): 70%
- pest or weed control at 62 g/ha ([1]; 62 g ai/ha): 75%
- pest or weed control at 125 g/ha ([1]; 125 g ai/ha): 80%
- pest or weed control at 16 g/ha (kochia (Kochia scoparia); 16 g ai/ha): 5%
- pest or weed control at 62 g/ha (kochia (Kochia scoparia); 62 g ai/ha): 40%
- pest or weed control at 125 g/ha (kochia (Kochia scoparia); 125 g ai/ha): 40%
- pest or weed control at 16 g/ha ([2]; 16 g ai/ha): 0%
- pest or weed control at 31 g/ha ([2]; 31 g ai/ha, read-out: Plant response rating (0 to 100), Galium): 0%
- pest or weed control at 62 g/ha ([2]; 62 g ai/ha, read-out: Plant response rating (0 to 100), Galium): 0%
- pest or weed control at 125 g/ha ([2]; 125 g ai/ha, read-out: Plant response rating (0 to 100), Galium): 5%
- plant injury at 16 g/ha ([3]; 16 g ai/ha): 0%
- plant injury at 62 g/ha ([3]; 62 g ai/ha, read-out: Plant response rating (0 to 100), Wheat): 0%
- plant injury at 125 g/ha ([3]; 125 g ai/ha, read-out: Plant response rating (0 to 100), Wheat): 0%
- plant injury at 16 g/ha (soybean (Glycine max); 16 g ai/ha): 0%
- plant injury at 62 g/ha (soybean (Glycine max); 62 g ai/ha, read-out: Plant response rating (0 to 100), Soybean): 0%
- plant injury at 125 g/ha (soybean (Glycine max); 125 g ai/ha, read-out: Plant response rating (0 to 100), Soybean): 5%
- pest or weed control at 16 g/ha ([4]; 16 g ai/ha): 0%
- pest or weed control at 62 g/ha ([4]; 62 g ai/ha, read-out: Plant response rating (0 to 100), Johnsongrass): 5%
- pest or weed control at 125 g/ha ([4]; 125 g ai/ha, read-out: Plant response rating (0 to 100), Johnsongrass): 10%
- pest or weed control at 16 g/ha ([5]; 16 g ai/ha): 0%
- pest or weed control at 62 g/ha ([5]; 62 g ai/ha, read-out: Plant response rating (0 to 100), Ryegrass, Italian): 0%
- pest or weed control at 125 g/ha ([5]; 125 g ai/ha, read-out: Plant response rating (0 to 100), Ryegrass, Italian): 0%
- pest or weed control at 16 g/ha ([6]; 16 g ai/ha): 5%
- pest or weed control at 31 g/ha ([6]; 31 g ai/ha, read-out: Plant response rating (0 to 100), Foxtail, Giant): 5%
- pest or weed control at 62 g/ha ([6]; 62 g ai/ha, read-out: Plant response rating (0 to 100), Foxtail, Giant): 5%
- pest or weed control at 125 g/ha ([6]; 125 g ai/ha, read-out: Plant response rating (0 to 100), Foxtail, Giant): 5%
- pest or weed control at 16 g/ha ([7]; 16 g ai/ha): 25%
- pest or weed control at 62 g/ha ([7]; 62 g ai/ha, read-out: Plant response rating (0 to 100), Lambsquarters): 55%
- pest or weed control at 125 g/ha ([7]; 125 g ai/ha, read-out: Plant response rating (0 to 100), Lambsquarters): 80%
- Corn plant response rating (crop injury, 0 = no effect, 100 = complete kill) at 16 g/ha (corn (Zea mays); 16 g ai/ha): 0%
- plant injury at 31 g/ha (corn (Zea mays); 31 g ai/ha): 0%
- plant injury at 62 g/ha (corn (Zea mays); 62 g ai/ha): 0%
- plant injury at 125 g/ha (corn (Zea mays); 125 g ai/ha): 0%
- pest or weed control at 16 g/ha ([8]; 16 g ai/ha): 0%
- pest or weed control at 62 g/ha ([8]; 62 g ai/ha, read-out: Plant response rating (0 to 100), Nutsedge, Yellow): 5%
- pest or weed control at 125 g/ha ([8]; 125 g ai/ha, read-out: Plant response rating (0 to 100), Nutsedge, Yellow): 5%
- pest or weed control at 16 g/ha ([9]; 16 g ai/ha): 20%
- pest or weed control at 125 g/ha ([9]; 125 g ai/ha, read-out: Plant response rating (0 to 100), Pigweed): 75%
